According to BigSolDB 2.1:

On1nnc2ccccc21
Settings	solubility (mole fraction)
in 1,4-dioxane, 288.15 K	0.0145
in 1,4-dioxane, 290.65 K	0.0158
in 1,4-dioxane, 293.15 K	0.0171
in 1,4-dioxane, 295.65 K	0.0187
in 1,4-dioxane, 298.15 K	0.0202
in 1,4-dioxane, 300.65 K	0.0225
in 1,4-dioxane, 303.15 K	0.0247
in 1,4-dioxane, 305.65 K	0.0272
in 1,4-dioxane, 308.15 K	0.0298
in 1,4-dioxane, 310.65 K	0.0331
in 1,4-dioxane, 313.15 K	0.0364
in 2-butanone, 278.15 K	0.0157
in 2-butanone, 280.65 K	0.0169
in 2-butanone, 283.15 K	0.0181
in 2-butanone, 285.65 K	0.0195
in 2-butanone, 288.15 K	0.021
in 2-butanone, 290.65 K	0.0225
in 2-butanone, 293.15 K	0.0241
in 2-butanone, 295.65 K	0.0259
in 2-butanone, 298.15 K	0.0278
in 2-butanone, 300.65 K	0.0299
in 2-butanone, 303.15 K	0.0323
in 2-butanone, 305.65 K	0.0347
in 2-butanone, 308.15 K	0.0372
in 2-butanone, 310.65 K	0.0402
in 2-butanone, 313.15 K	0.0433
in DMF, 278.15 K	0.0412
in DMF, 280.65 K	0.0464
in DMF, 283.15 K	0.0522
in DMF, 285.65 K	0.0587
in DMF, 288.15 K	0.0646
in DMF, 290.65 K	0.072
in DMF, 293.15 K	0.0794
in DMF, 295.65 K	0.0884
in DMF, 298.15 K	0.098
in DMF, 300.65 K	0.109
in DMF, 303.15 K	0.121
in DMF, 305.65 K	0.134
in DMF, 308.15 K	0.148
in DMF, 310.65 K	0.164
in DMF, 313.15 K	0.18
in DMSO, 278.15 K	0.0337
in DMSO, 280.65 K	0.0377
in DMSO, 283.15 K	0.0421
in DMSO, 285.65 K	0.0475
in DMSO, 288.15 K	0.0529
in DMSO, 290.65 K	0.0592
in DMSO, 293.15 K	0.0664
in DMSO, 295.65 K	0.0738
in DMSO, 298.15 K	0.082
in DMSO, 300.65 K	0.0921
in DMSO, 303.15 K	0.103
in DMSO, 305.65 K	0.114
in DMSO, 308.15 K	0.128
in DMSO, 310.65 K	0.142
in DMSO, 313.15 K	0.157
in acetone, 278.15 K	0.0139
in acetone, 280.65 K	0.0149
in acetone, 283.15 K	0.016
in acetone, 285.65 K	0.0171
in acetone, 288.15 K	0.0184
in acetone, 290.65 K	0.0198
in acetone, 293.15 K	0.0214
in acetone, 295.65 K	0.0229
in acetone, 298.15 K	0.0246
in acetone, 300.65 K	0.0266
in acetone, 303.15 K	0.0285
in acetone, 305.65 K	0.0306
in acetone, 308.15 K	0.033
in acetone, 310.65 K	0.0355
in acetone, 313.15 K	0.0383
in acetonitrile, 278.15 K	0.00229
in acetonitrile, 280.65 K	0.00249
in acetonitrile, 283.15 K	0.00271
in acetonitrile, 285.65 K	0.00295
in acetonitrile, 288.15 K	0.00322
in acetonitrile, 290.65 K	0.00348
in acetonitrile, 293.15 K	0.0038
in acetonitrile, 295.65 K	0.00414
in acetonitrile, 298.15 K	0.00449
in acetonitrile, 300.65 K	0.00488
in acetonitrile, 303.15 K	0.00531
in acetonitrile, 305.65 K	0.0058
in acetonitrile, 308.15 K	0.00631
in acetonitrile, 310.65 K	0.00685
in acetonitrile, 313.15 K	0.00749
in ethanol, 278.15 K	0.0318
in ethanol, 280.65 K	0.0331
in ethanol, 283.15 K	0.0355
in ethanol, 285.65 K	0.0377
in ethanol, 288.15 K	0.0406
in ethanol, 290.65 K	0.0433
in ethanol, 293.15 K	0.0462
in ethanol, 295.65 K	0.0493
in ethanol, 298.15 K	0.0528
in ethanol, 300.65 K	0.0566
in ethanol, 303.15 K	0.0605
in ethanol, 305.65 K	0.0651
in ethanol, 308.15 K	0.0697
in ethanol, 310.65 K	0.0746
in ethanol, 313.15 K	0.0802
in ethyl acetate, 278.15 K	0.00505
in ethyl acetate, 280.65 K	0.00555
in ethyl acetate, 283.15 K	0.00606
in ethyl acetate, 285.65 K	0.00676
in ethyl acetate, 288.15 K	0.00745
in ethyl acetate, 290.65 K	0.00821
in ethyl acetate, 293.15 K	0.00908
in ethyl acetate, 295.65 K	0.0101
in ethyl acetate, 298.15 K	0.0115
in ethyl acetate, 300.65 K	0.013
in ethyl acetate, 303.15 K	0.0149
in ethyl acetate, 305.65 K	0.0169
in ethyl acetate, 308.15 K	0.0193
in ethyl acetate, 310.65 K	0.0219
in ethyl acetate, 313.15 K	0.0247
in isooctanol, 278.15 K	0.0108
in isooctanol, 280.65 K	0.0112
in isooctanol, 283.15 K	0.0115
in isooctanol, 285.65 K	0.0119
in isooctanol, 288.15 K	0.0123
in isooctanol, 290.65 K	0.0127
in isooctanol, 293.15 K	0.0132
in isooctanol, 295.65 K	0.0137
in isooctanol, 298.15 K	0.0143
in isooctanol, 300.65 K	0.0149
in isooctanol, 303.15 K	0.0154
in isooctanol, 305.65 K	0.0161
in isooctanol, 308.15 K	0.0168
in isooctanol, 310.65 K	0.0175
in isooctanol, 313.15 K	0.0182
in isopentanol, 278.15 K	0.0109
in isopentanol, 280.65 K	0.0114
in isopentanol, 283.15 K	0.0118
in isopentanol, 285.65 K	0.0123
in isopentanol, 288.15 K	0.0127
in isopentanol, 290.65 K	0.0132
in isopentanol, 293.15 K	0.0137
in isopentanol, 295.65 K	0.0143
in isopentanol, 298.15 K	0.0148
in isopentanol, 300.65 K	0.0155
in isopentanol, 303.15 K	0.0161
in isopentanol, 305.65 K	0.0167
in isopentanol, 308.15 K	0.0174
in isopentanol, 310.65 K	0.0181
in isopentanol, 313.15 K	0.0188
in isopropanol, 278.15 K	0.0248
in isopropanol, 280.65 K	0.0261
in isopropanol, 283.15 K	0.0281
in isopropanol, 285.65 K	0.0301
in isopropanol, 288.15 K	0.032
in isopropanol, 290.65 K	0.0341
in isopropanol, 293.15 K	0.0367
in isopropanol, 295.65 K	0.0392
in isopropanol, 298.15 K	0.0421
in isopropanol, 300.65 K	0.0451
in isopropanol, 303.15 K	0.0481
in isopropanol, 305.65 K	0.0515
in isopropanol, 308.15 K	0.0553
in isopropanol, 310.65 K	0.0592
in isopropanol, 313.15 K	0.0637
in methanol, 278.15 K	0.0223
in methanol, 280.65 K	0.0239
in methanol, 283.15 K	0.0254
in methanol, 285.65 K	0.0274
in methanol, 288.15 K	0.0294
in methanol, 290.65 K	0.0314
in methanol, 293.15 K	0.0336
in methanol, 295.65 K	0.0358
in methanol, 298.15 K	0.0386
in methanol, 300.65 K	0.0415
in methanol, 303.15 K	0.0445
in methanol, 305.65 K	0.048
in methanol, 308.15 K	0.0522
in methanol, 310.65 K	0.0562
in methanol, 313.15 K	0.0609
in n-heptanol, 278.15 K	0.0119
in n-heptanol, 280.65 K	0.0123
in n-heptanol, 283.15 K	0.0129
in n-heptanol, 285.65 K	0.0134
in n-heptanol, 288.15 K	0.014
in n-heptanol, 290.65 K	0.0146
in n-heptanol, 293.15 K	0.0152
in n-heptanol, 295.65 K	0.0158
in n-heptanol, 298.15 K	0.0165
in n-heptanol, 300.65 K	0.0173
in n-heptanol, 303.15 K	0.0182
in n-heptanol, 305.65 K	0.019
in n-heptanol, 308.15 K	0.02
in n-heptanol, 310.65 K	0.021
in n-heptanol, 313.15 K	0.022
in n-hexanol, 278.15 K	0.0114
in n-hexanol, 280.65 K	0.0118
in n-hexanol, 283.15 K	0.0123
in n-hexanol, 285.65 K	0.0129
in n-hexanol, 288.15 K	0.0134
in n-hexanol, 290.65 K	0.0139
in n-hexanol, 293.15 K	0.0145
in n-hexanol, 295.65 K	0.0152
in n-hexanol, 298.15 K	0.0159
in n-hexanol, 300.65 K	0.0166
in n-hexanol, 303.15 K	0.0174
in n-hexanol, 305.65 K	0.0182
in n-hexanol, 308.15 K	0.019
in n-hexanol, 310.65 K	0.0198
in n-hexanol, 313.15 K	0.0206
in n-propanol, 278.15 K	0.0297
in n-propanol, 280.65 K	0.0319
in n-propanol, 283.15 K	0.034
in n-propanol, 285.65 K	0.0362
in n-propanol, 288.15 K	0.0387
in n-propanol, 290.65 K	0.0412
in n-propanol, 293.15 K	0.044
in n-propanol, 295.65 K	0.0472
in n-propanol, 298.15 K	0.0502
in n-propanol, 300.65 K	0.0535
in n-propanol, 303.15 K	0.0573
in n-propanol, 305.65 K	0.0612
in n-propanol, 308.15 K	0.0655
in n-propanol, 310.65 K	0.0698
in n-propanol, 313.15 K	0.0749
in toluene, 278.15 K	1.1e-05
in toluene, 280.65 K	1.2e-05
in toluene, 283.15 K	1.5e-05
in toluene, 285.65 K	1.61e-05
in toluene, 288.15 K	1.99e-05
in toluene, 290.65 K	2.17e-05
in toluene, 293.15 K	2.49e-05
in toluene, 295.65 K	2.85e-05
in toluene, 298.15 K	3.26e-05
in toluene, 300.65 K	3.61e-05
in toluene, 303.15 K	4.28e-05
in toluene, 305.65 K	4.87e-05
in toluene, 308.15 K	5.56e-05
in toluene, 310.65 K	6.2e-05
in toluene, 313.15 K	6.92e-05
